Reference: US11992011B2, “Compounds for controlling plant pathogens” (VIB VZW, priority 2017, dated 2024)

How the values were obtained:
[1] = system: wheat; assay: Phytotoxicity of foliar spray in uninfected wheat (Example 1); type: in vivo, Triticum aestivum; settings: 500 μM foliar spray, 8 plants per treatment
Description: For Examples 1, 5 and 10, seeds of the winter wheat cultivar Sahara (Aveve Agrarisch, Landen, Belgium) were used. Seeds were washed in a 10% ethanol solution to remove any residual traces of fungicide and then germinated on wet paper at room temperature for four days; seeds were transferred to SAP tubes and placed in a growth chamber (25° C., 16 hours per day of light). Plants were watered with 8 ml of half-strength Hoagland solution every two days for the first ten days and with 8 ml of full strength Hoagland solution every two days afterwards.
(§1) Unless otherwise mentioned, all chemicals for nematode experiments were applied as a foliar spray consisting of the target compound at a concentration of 300 μM together with 0.1% (v/v) Tween 20 surfactant (Calbiochem) in distilled water. Again unless otherwise mentioned, all treatments for the nematode experiments were carried out three times: one and eight days before pathogen inoculation and seven days after pathogen inoculation. In all cases, plants were sprayed until run-off with an atomizer.
(§2) Short-term phytotoxicity experiments (Example 1) were analyzed using non-parametric methods. For each variable, overall significance was determined using the Kruskal-Wallis test (Kruskal and Wallis, 1952), followed by a posthoc Conover-Iman test (Conover and Iman, 1981) with Hommel multiplicity correction (Hommel, 1988) if the Kruskal-Wallis test was significant. When only two groups were present, the Wilcoxon-Mann-Whitney test was used (Mann and Whitney, 1947).
(§3) To test whether C4H inhibitors induce phytotoxic effects in crops, uninfected tomato, wheat and carrot were treated with piperonylic acid (PA), 4-iodobenzoic acid (4-IBA) and piperic acid (PIA) at a concentration of 500 μM through foliar application. At harvest, leaf area (or shoot length in the case of wheat) and primary root length were recorded. The BBCH developmental stage (Lancashire et al., 1991), a measure of developmental retardation, was used to test for effects on development. Finally, the presence of visible signs of phytotoxicity such as chlorosis, discoloration or necrosis was recorded.

[2] = system: carrot; assay: Phytotoxicity of foliar spray in uninfected carrot (Example 1); type: in vivo, Daucus carota; settings: 500 μM foliar spray, 8 plants per treatment
Description: Carrot seeds, cv. Nantes 2 (Vreeken's Zaden, Dordrecht, the Netherlands) were germinated on wet paper for seven days at 21° C. After germination, seedlings were transferred to individual pots filled with potting soil and placed in a growth chamber at 21° C.
as §1, §2, §3

[3] = system: OsGH3.1; assay: qRT-PCR in rice roots, OsGH3.1 (Example 20); type: in vivo, Oryza sativa; settings: rice cv. Bomba root tissue; same samples as Example 19
Description: (§4) After quality control, qPCR was carried out.
(§5) To test whether other defense hormones might be involved, genes responsive to jasmonic acid (the biosynthesis gene OsAOS2) and auxin (the auxin conjugating enzyme OsGH3.1) were investigated. Moreover, the callose-degrading enzyme OsGNS5, downregulation of which is associated with basal defense, was also investigated. The qRT-PCR analysis was performed on the same samples used in the previous Example.

[4] = system: OsGNS5; assay: qRT-PCR in rice roots, OsGNS5 (Example 20); type: in vivo, Oryza sativa; settings: rice cv. Bomba root tissue; same samples as Example 19
Description: as §4, §5

[5] = system: Meloidogyne incognita; assay: M. incognita infection in DIECA-treated tomato (Example 18); type: in vivo; settings: PA together with DIECA
Description: Infection experiments with M. incognita were performed in the same manner as those with M. graminicola, except that plants were harvested 31 days after inoculation instead of 14 days. At this point, the plants were phenotyped by measuring the root length with a ruler and in some experiments by measuring leaf area using the EasyLeafArea software (Easlon and Bloom, 2014) and by determining shoot dry mass after 72 hours of drying in an oven at 70° C. Galls were stained and counted as described above.
To determine whether C4H inhibitors depend on this hormonal pathway, it was tested whether tomato plants treated with the chemical inhibitor of jasmonic acid biosynthesis diethyldithiocarbamate (DIECA) (Farmer et al., 1994) still responded to PA treatment.

[6] = system: Pythium splendens; assay: Pythium splendens in green bean with PA seed coating (Example 22); type: in vivo
Description: FIG. 25: (a) effect of a 500 μM piperonylic acid coating compared to a mock coating on germination in soil with or without Pythium splendens (PA: piperonylic acid coating, no Pythium; CON: mock coating, no Pythium; PA+Ps: piperonylic acid coating, Pythium splendens; CON+Ps: mock coating, Pythium splendens); N=45. (b) plant health score of emerged seedlings fourteen days after the start of the experiment. Scores: 0=seedling died after emergence; 1=seedling alive but stunted; 2=seedling healthy. (c) primary root length fourteen days after the start of the experiment, with bars indicating means and error bars standard deviation.

[7] = system: Pseudomonas syringae (pv. DC3000); assay: Pseudomonas syringae infection experiment in tomato (Example 21); type: in vivo; settings: PA foliar spray
Description: Tomato plants (Solanum lycopersicum cv. Moneymaker) were grown in potting soil as described in the plant materials section until the fourth leaf stage. Plants were treated with a piperonylic acid or control spray as described in the chemicals section. Twenty-four hours before inoculation, the tomato plants were placed in a sealed cloche to keep humidity at 100%.
A glycerol stock of P. syringae pv. DC3000 kept at−80° C. was spotted on petri dishes containing King's B agar amended with 75 μg/ml rifampicine (Duchefa Biochemie, Haarlem, the Netherlands). The plates were incubated in the dark at 28° C. for one week. At this time point, glass test tubes containing 5 ml of liquid King's B each (without rifampicin) were inoculated with cells from the plates and placed on an orbital shaker at 200 rpm for 24 hours at 28° C. 100 μl of this liquid inoculum was transferred to fresh glass test tubes containing 5 ml of liquid King's B each (without rifampicin), which were placed on an orbital shaker at 200 rpm for 24 hours at 28° C.
At this time point, the liquid culture was diluted with fresh King's B medium to an OD of 1.0. This medium was then centrifuged at 3000 rpm for ten minutes; the supernatant was discarded and the cells were resuspended in 10 mM MgSO4 to an OD of 0.20. To this inoculum, 0.01 v/v % Silwet 77 surfactant was added.
Whole tomato plants were inoculated by briefly dipping them in a beaker of the aforementioned inoculum. After dipping, plants were placed back in the sealed cloche for 12 hours. […]
Due to the difference in disease progression, two different scoring systems were used. In the first experiment, the number of lesions per plant was counted three days after inoculation and the percentage of leaf area covered by lesions was quantified using the ImageJ software after seven days. In the second experiment, each fully developed leaf was scored on a disease scale between 0 and 4 as follows: 0=no visible symptoms; 1=isolated lesions; 2=large lesions, covering <50% of leaf area; 3=lesions covering more than half of the leaf area; 4=leaf irreversibly shriveled or abscised. […]

O=C(O)c1ccc2c(c1)OCO2 [PA, Piperonylic acid]
Root length ([1]; mean ± standard deviation): 15.75 ± 2.64 cm | Shoot length ([1]; mean ± standard deviation): 31.75 ± 2.84 cm | BBCH stage ([1]; median ± interquartile range): 13 ± 0 | Leaf Area ([2]; mean ± standard deviation): 6.07 ± 2.12 cm^2 | BBCH stage ([2]; median ± interquartile range): 13 ± 0 | Fold change vs. control, OsGH3.1 expression [3]: 1.21 | Fold change vs. control, OsGNS5 expression [4]: 0.41 | change of number of galls, plants treated with both PA and DIECA vs untreated wild type plants [5]: −31% | difference in number of galls, plants treated with both PA and DIECA vs PA-treated wild type plants ([5]; not significant): +14% | emergence in soil containing P. splendens ([6]; 500 μM PA seed coating vs mock coating): did not improve emergence | seedling health after emergence ([6]; 500 μM PA seed coating vs mock coating, fourteen days): significantly improved | primary root length in P. splendens-infested soil vs control-coated seeds ([6]; 500 μM PA seed coating, fourteen days): longer | mean percentage of leaf area covered by lesions ([7]; first experiment, after seven days): reduced | change of total number of lesions per plant ([7]; first experiment, three days after inoculation, vs control): −25% | reduction of mean plant disease index ([7]; second experiment, scale 0 to 4): 20%
